Data taken from patent US20260138988A1, “Spiropyrrolidine Derived Antiviral Agents” (Enanta Pharmaceuticals, Inc., priority 2021, published 2026).

target: SARS-CoV-2 3CL-protease (Severe acute respiratory syndrome coronavirus 2, UniProt P0DTD1); test: SARS-CoV-2 3C-Like (3CL) Protease Fluorescence Assay (FRET); format: biochemical; conditions: IC50, SARS-CoV-2 3CL-protease 10 nM, test compounds 0-10 μM, duplicate

| Structure (SMILES) | IC50 |
| --- | --- |
| CC[C@H](NC(=O)C(F)(F)C(F)(F)C(F)(F)F)C(=O)N(C)[C@@H](CC(C)C)C(=O)N1C[C@]2(C[C@H]1C#N)C(=O)Nc1ccccc12 [Example 201] | < 100 nM |

same assay, conditions: SARS-CoV-2 3CL-protease 10 nM, test compounds 0-10 μM, duplicate, read-out: IC50

| Structure (SMILES) | IC50 |
| --- | --- |
| CCN1C[C@H]2CCCC[C@H]2C[C@H]1C(=O)N(C)[C@@H](CC(C)(C)C)C(=O)N1C[C@]2(C[C@H]1C#N)C(=O)Nc1ccccc12 [Example 179] | < 100 nM |
| CC(C)(C)C[C@H](NC(=O)[C@@H](NC(=O)C(F)(F)F)c1ccccc1)C(=O)N1C[C@]2(C[C@H]1C#N)C(=O)Nc1ccccc12 [Example 245] | < 100 nM |
| C[C@H](NC(=O)c1cccc2ccc(Cl)cc12)C(=O)N(C)[C@@H](CC(C)(C)C)C(=O)N1C[C@]2(C[C@H]1C#N)C(=O)Nc1ccccc12 [Example 294] | < 100 nM |
| C[C@H](NC(=O)C(F)(F)C(F)(F)F)C(=O)N(C)[C@@H](CC(C)(C)C)C(=O)N1C[C@]2(C[C@H]1C#N)C(=O)Nc1c(Cl)cc(Cl)cc12 [Example 173] | < 100 nM |
| C[C@H](NC(=O)C(F)(F)F)C(=O)N[C@@H](CC(C)(C)C)C(=O)N1C[C@]2(C[C@H]1C#N)C(=O)Nc1ccccc12 [Example 222] | < 100 nM |
| C[C@H](NC(=O)C(C)(F)F)C(=O)N(C)[C@@H](CC(C)(C)C)C(=O)N1C[C@]2(C[C@H]1C#N)C(=O)Nc1ccccc12 [Example 288] | < 100 nM |
| C[C@H](NC(=O)C(F)(F)F)C(=O)N(C)[C@@H](C)C(=O)N1C[C@]2(C[C@H]1C#N)C(=O)Nc1ccccc12 [Example 204] | < 100 nM |
| CC(C)C[C@@H](C(=O)N1C[C@]2(C[C@H]1C#N)C(=O)Nc1ccccc12)N(C)C(=O)[C@H](C)NC(=O)C12CC(C(F)(F)F)(C1)C2 [Example 279] | < 100 nM |
| CC(C)(C)C[C@H](NC(=O)[C@@H](Nc1ccc2ccccc2c1)C1CC1)C(=O)N1C[C@]2(C[C@H]1C#N)C(=O)Nc1ccccc12 [Example 342] | < 100 nM |
| CC(C)(C)C[C@H](NC(=O)[C@H](CC1CC1)NC(=O)c1ccc(C2CCCCC2)cc1)C(=O)N1C[C@]2(C[C@H]1C#N)C(=O)Nc1ccccc12 [Example 303] | < 100 nM |
| CC(C)(C)C[C@H](NC(=O)[C@H](CC1CC1)NC(=O)c1ccc(C(C)(C)C)cc1)C(=O)N1C[C@]2(C[C@H]1C#N)C(=O)Nc1ccccc12 [Example 304] | < 100 nM |
| CC(C)CC(NC(=O)c1cnn(CC(F)(F)F)c1)C(=O)N1CC[C@H](c2ccccc2)[C@H]1C(=O)N1C[C@]2(C[C@H]1C#N)C(=O)Nc1ccccc12 (stereo partly drawn) [Example 346] | < 100 nM |
| CC(C)(C)C[C@H](NC(=O)[C@H](CC1CC1)NC(=O)c1cc(F)c2nn(C3CC3)cc2c1)C(=O)N1C[C@]2(C[C@H]1C#N)C(=O)Nc1ccccc12 [Example 305] | < 100 nM |
| CC(C)C[C@@H](C(=O)N1C[C@]2(C[C@H]1C#N)C(=O)Nc1ccccc12)N(C)C(=O)[C@H](C)NC(=O)C(=O)Nc1c(F)cccc1C(F)(F)F [Example 202] | < 100 nM |
| CCN(C(=O)[C@H](C)NC(=O)c1ccc(OC(F)(F)F)cc1)[C@@H](CC(C)C)C(=O)N1C[C@]2(C[C@H]1C#N)C(=O)Nc1ccccc12 [Example 361] | < 100 nM |
| CC(C)(C)C[C@H](NC(=O)[C@@H](Nc1ccccc1)C1CC1)C(=O)N1C[C@]2(C[C@H]1C#N)C(=O)Nc1ccccc12 [Example 340] | < 100 nM |
| CC(C)N1CCc2cc(C(=O)N(C)[C@@H](CC(C)(C)C)C(=O)N3C[C@]4(C[C@H]3C#N)C(=O)Nc3ccccc34)[nH]c2C1 [Example 176] | < 100 nM |
| COc1ccc(C(=O)N[C@@H](C)C(=O)N(C)[C@@H](CC(C)(C)C)C(=O)N2C[C@]3(C[C@H]2C#N)C(=O)Nc2ccccc23)c2ccccc12 [Example 293] | < 100 nM |
| CCN(C(=O)[C@H](C)NC(=O)N1CCCCC1)[C@@H](CC(C)C)C(=O)N1C[C@]2(C[C@H]1C#N)C(=O)Nc1ccccc12 [Example 370] | < 100 nM |

| Structure (SMILES) | IC50 |
| --- | --- |
| C[C@@H]1NC(=O)CCCCCCc2ccc3c(c2)[C@@]2(C[C@@H](C#N)N(C2)C(=O)[C@H](CC(C)(C)C)NC1=O)C(=O)N3 [Example 379] | > 1000 nM |
| [2H]C([2H])([2H])N(C(=O)[C@H](C)NC(=O)C(F)(F)F)[C@@H](CCCC)C(=O)N1C[C@]2(C[C@H]1C#N)C(=O)Nc1ccccc12 [Example 191] | < 100 nM |
| CC(C)(C)C[C@H](NC(=O)[C@@H](NC(=O)c1ccc(F)cc1)c1ccccc1)C(=O)N1C[C@]2(C[C@H]1C#N)C(=O)Nc1ccccc12 [Example 247] | < 100 nM |
| C[C@H](NC(=O)c1cnn(-c2ccc(C(F)(F)F)cc2)c1)C(=O)N(C)[C@@H](CC(C)(C)C)C(=O)N1C[C@]2(C[C@H]1C#N)C(=O)Nc1ccccc12 [Example 221] | < 100 nM |
| CC(C)C[C@@H](C(=O)N1C[C@]2(C[C@H]1C#N)C(=O)Nc1ccccc12)N(C)C(=O)[C@H](C)NC(=O)C(F)(F)C1CCCC1 [Example 197] | < 100 nM |
| C[C@H](NC(=O)C(F)(F)C(F)(F)F)C(=O)N(C)[C@@H](CC1CC1)C(=O)N1C[C@]2(C[C@H]1C#N)C(=O)Nc1ccc(Cl)cc12 [Example 170] | < 100 nM |
| CCN(C(=O)[C@H](C)NC(=O)C(F)(F)F)[C@@H](CC(C)C)C(=O)N1C[C@]2(C[C@H]1C#N)C(=O)Nc1ccccc12 [Example 365] | < 100 nM |
| CC(C)C[C@@H](C(=O)N1C[C@]2(C[C@H]1C#N)C(=O)Nc1ccccc12)N(C)C(=O)[C@H](C)NC(=O)C12CC3CC(CC(C3)C1)C2 [Example 298] | < 100 nM |
| CC(C)C[C@@H](C(=O)N1C[C@]2(C[C@H]1C#N)C(=O)Nc1ccccc12)N(C)C(=O)[C@H](C)NC(=O)C(C)(F)F [Example 273] | < 100 nM |
| CCN(C(=O)[C@H](C)NC(=O)C12CC3CC(CC(C3)C1)C2)[C@@H](CC(C)C)C(=O)N1C[C@]2(C[C@H]1C#N)C(=O)Nc1ccccc12 [Example 368] | < 100 nM |
| CC(C)C[C@@H](C(=O)N1C[C@]2(C[C@H]1C#N)C(=O)Nc1ccccc12)N(C)C(=O)[C@H]1CC[C@H](c2ccc(F)cc2)N1C(C)C [Example 237] | < 100 nM |
| CCN(C(=O)[C@H](C)NC(=O)c1c(F)cc(F)cc1F)[C@@H](CC(C)C)C(=O)N1C[C@]2(C[C@H]1C#N)C(=O)Nc1ccccc12 [Example 362] | < 100 nM |
| C[C@H](NC(=O)C(F)(F)C(F)(F)F)C(=O)N(C)[C@@H](CC(C)(C)C)C(=O)N1C[C@]2(C[C@H]1C#N)C(=O)Nc1ccc(Br)cc12 [Example 171] | < 100 nM |
| C[C@H](NC(=O)C12CC3CC(CC(C3)C1)C2)C(=O)N(C)[C@@H](CC(C)(C)C)C(=O)N1C[C@]2(C[C@H]1C#N)C(=O)Nc1ccccc12 [Example 310] | < 100 nM |
| C[C@H](NC(=O)c1ccc(C(F)(F)F)cc1)C(=O)N(C)[C@@H](CC(C)(C)C)C(=O)N1C[C@]2(C[C@H]1C#N)C(=O)Nc1ccccc12 [Example 286] | < 100 nM |
| CC[C@H](NC(=O)C(F)(F)F)C(=O)N(C)[C@@H](CC(C)C)C(=O)N1C[C@]2(C[C@H]1C#N)C(=O)Nc1ccccc12 [Example 199] | < 100 nM |
| C[C@H](NC(=O)C(F)(F)CCc1ccccc1)C(=O)N(C)[C@@H](CC(C)(C)C)C(=O)N1C[C@]2(C[C@H]1C#N)C(=O)Nc1ccccc12 [Example 244] | < 100 nM |
| C[C@H](NC(=O)C(F)(F)F)C(=O)N(C)[C@@H](Cc1ccccc1)C(=O)N1C[C@]2(C[C@H]1C#N)C(=O)Nc1ccccc12 [Example 267] | < 100 nM |
| CC(C)(C)C[C@H](NC(=O)c1ccc(F)cc1)C(=O)N[C@@H](CC(C)(C)C)C(=O)N1C[C@]2(C[C@H]1C#N)C(=O)Nc1ccccc12 [Example 225] | < 100 nM |
